The values that follow come from paper PMC12210654, “Palazestrant, a novel oral Complete Estrogen Receptor Antagonist (CERAN) and Selective Estrogen Receptor Degrader (SERD), in patients with ER+/HER2− advanced or metastatic breast cancer: phase 1/2 study results” (Breast Cancer Research : BCR, 2025).

Entries after “also recorded” stand apart in the source; their conditions may differ. Read-outs that look alike come from different tables or passages of the source.

Data set [1] has as its system ER+/HER2− advanced or metastatic breast cancer. More on the design: method as in ref 41 = [41]; 41. Lin NU, Borges VF, Patel MR, Okera M, Meisel J, Wesolowski R, et al. Results from the phase I/II study of OP-1250, an oral complete estrogen receptor (ER) antagonist (CERAN) and selective ER degra. The note with it: cited from earlier work.
Data set [2] can be described thus: Plasma pharmacokinetics, single and multiple dose, noncompartmental. It is filed as in vivo, human. Particulars: for AUC(0-t): steady-state geometric mean AUC0–24. As to the method: All DLT analyses (phase 1a) were performed in patients enrolled in the study during cycle 1 and who either received 75% of the planned palazestrant doses or experienced a DLT during cycle 1. All PK analyses were performed in patients who received at least 1 dose of palazestrant and had adequate postbaseline PK samples for characterization of PK parameters. All safety analyses were performed and PFS assessed in patients who received at least 1 dose of palazestrant. Clinical response (CR or PR) was assessed in patients who received at least 1 cycle of palazestrant, had measurable disease at baseline, and had at least 1 postbaseline tumor assessment. CBR was assessed in patients who received at least 1 cycle of palazestrant, had at least 1 postbaseline tumor assessment, and started their first dose at least 24 weeks before data cutoff. Patients who discontinued study treatment without radiographic progression within 24 weeks from the first dose were not included in the CBR analysis. PK parameters were estimated using conventional noncompartmental methods. For CBR, estimates were accompanied by 2-sided 95% confidence intervals (95% CIs). For PFS, Kaplan–Meier analyses were used to determine medians, event-free rates, and 95% CIs. For all other outcomes, categorical data were analyzed using frequencies and percentages, and continuous data were analyzed using means (standard deviation) or medians (range), as appropriate.
Fig. 3 Steady-State Plasma Concentration–Time Profiles for Palazestrant (30 to 300 mg QD; Phase 1a/1b/2 data). Palazestrant was administered once daily at the indicated dose. Plasma samples were collected on cycle 2, day 1, at the indicated timepoints following administration to determine plasma drug concentration. Data presented are arithmetic mean and standard deviation; the heavy dashed black line represents the target (efficacious) exposure based on estradiol-supplemented preclinical models (Cmin: 226 ng/mL). Cmin, minimum plasma concentration; QD, once daily

The subject of data set [3] is ESR1. Put plainly: ESR1 mutations in cell-free DNA (SafeSEQ Breast Cancer Panel). Type of data set: in vivo, human. How it is done: (§1) All immunohistochemistry analyses from tumor samples were performed at ICON Central Laboratories (Farmingdale, NY, USA) using the Ventana® BenchMark ULTRA™ automated staining instrument (Oro Valley, AZ, USA). Positive- and negative-control tissue and negative reagent controls were run for each marker, as well as low-ER controls for each run. Estrogen receptor levels were estimated as the number of positive tumor nuclei divided by the total number of tumor nuclei, expressed as a percentage for each receptor type. Evaluation of Ki67 was performed in accordance with Ki67 Working Group recommendations: 1) only nuclear staining was assessed as positive; 2) in cases of tumor heterogeneity (hot spots), 2 counts were performed and the average was reported; and 3) lymphocyte-rich areas were avoided when possible. Presence of activating ESR1 mutations (amino acid regions 370–381, 460–473, and 529–538) and their mutant allele fractions (MAFs) were determined in cell-free DNA (cfDNA), collected at baseline and at 8 weeks on treatment using the SafeSEQ Breast Cancer Panel (Sysmex Inostics, Baltimore, MD, USA).
In patients who underwent biomarker testing, samples collected on cycle 3 day 1 of treatment across all dose levels were compared to baseline samples to assess changes during treatment. […] Additionally, the number of endocrine resistance-associated ESR1-variant mutations (Y537S, Y537 N/C, L536H/P/R, and D538G) were reduced from 106 mutations detected at baseline (in 64 patients with detectable mutations at baseline) to 37 mutations (in 21 patients) after 2 treatment cycles of palazestrant treatment (Supplemental Fig. 2 C).
14 Supplemental Figure 2. Biomarker analyses following treatment with palazestrant.
15 Quantitative analyses were performed on patient tissue and blood samples collected at baseline and
16 cycle 3 day 1 of palazestrant treatment.
17 decreased after treatment with palazestrant compared (P=.041). B) ER Allred scores were decreased
18 after treatment with palazestrant (P=.13). C) Sankey diagram showing the number of mutations detected
19 in cfDNA for each ESR1 variant before and after treatment with palazestrant. N = number of patients in
20 the analysis; n= number of mutations.
21 49 (77%) had at least one mutation become “Not detected” at C3D1.
22 ESR1 mutation detected at C1D1, 43 (67%) had all their detected mutation(s) become “Not detected” at […]

Data set [4] is described as follows: Dose escalation (phase 1a): dose-limiting toxicity, MTD, RP2D. It is filed as in vivo. The note with it: once-daily oral doses of 30 to 300 mg/day. As to the method: Phase 1 of the study comprised a dose-escalation phase (1a) to identify the MTD using a rolling 6 patient dose-escalation design with 7 dose levels. Two doses of palazestrant (60 mg/day and 120 mg/day) were selected for the dose-expansion phase (1b) to further characterize the safety, PK, and preliminary antitumor activity of treatment and to establish the RP2D. Phase 2 further explored the safety and antitumor activity of palazestrant at the RP2D (120 mg/day) in patients with measurable disease (primary cohort), nonmeasurable evaluable disease (exploratory cohort), and central nervous system (CNS) metastases (exploratory cohort). […]
All DLT analyses (phase 1a) were performed in patients enrolled in the study during cycle 1 and who either received 75% of the planned palazestrant doses or experienced a DLT during cycle 1. […] All safety analyses were performed and PFS assessed in patients who received at least 1 dose of palazestrant. Clinical response (CR or PR) was assessed in patients who received at least 1 cycle of palazestrant, had measurable disease at baseline, and had at least 1 postbaseline tumor assessment. CBR was assessed in patients who received at least 1 cycle of palazestrant, had at least 1 postbaseline tumor assessment, and started their first dose at least 24 weeks before data cutoff. […]

For data set [5], the system named is ERα. Description: ERα immunohistochemistry (Allred score) of tumor samples. It is filed as in vivo, human. Particulars: cycle 3 day 1 (N = 12), all dose levels; baseline 6.67 (N = 18); P = 0.13. How it is done:
as §1
In patients who underwent biomarker testing, samples collected on cycle 3 day 1 of treatment across all dose levels were compared to baseline samples to assess changes during treatment. […]

The mark [6] stands for this setting: second- or third-line subanalysis, cancers with ESR1 mutations.
The mark [7] stands for this setting: of 64 patients with an ESR1 mutation detected at C1D1.

As for `CCCN1CC(Oc2ccc([C@@H]3c4[nH]c5ccccc5c4C[C@@H](C)N3CC(C)(C)F)cc2)C1` [palazestrant, Palazestrant], in data set [1] (49 patients, second- or third-line therapy with or without prior chemotherapy), the “median PFS” value is 7.2 months. The CBR in data set [1] (49 patients, second- or third-line therapy, overall) is recorded as 48%. In data set [1] (setting [6]), the CBR is 59% and the PFS is reported as 7.3 months. Further, the “steady-state plasma concentrations versus predicted efficacy threshold (226 ng/mL)” value in data set [2] (doses of ≥ 60 mg/day (60 and 120 mg/day)) is listed as “reached the predicted efficacy threshold; also recorded: above the predicted efficacy threshold”. The AUC(0-t) (as a rule, exposure summed from dosing to a finite time, without extrapolation to infinity) in data set [2] (human, in vivo, 60 mg) amounted to 4030 ng·h/mL. In data set [2] (human, in vivo, 120 mg), this compound displayed an exposure AUC(0-t) of 9210 ng·h/mL. The half-life (usually how long it takes for the measured level to halve) in data set [2] (human, in vivo, 120 mg, terminal half-life) is 192 h. For the same compound, in data set [2] (human, in vivo, po), the bioavailability result is “readily bioavailable”. Further, in data set [2] (in vivo), the distribution entry is reported as “extensive tissue distribution”, the “dose proportionality of exposure” value was “dose-proportional exposure” and the elimination entry is on record as “biphasic elimination”. Further, the “patients with detectable ESR1-variant mutations on treatment” value in data set [3] (after 2 treatment cycles, 64 patients at baseline) came out at 21 patients. The “number of endocrine resistance-associated ESR1-variant mutations detected on treatment” value in data set [3] (after 2 treatment cycles, 106 mutations at baseline) is given as 37 mutations. In addition, in data set [3] (setting [7]), the “patients with all detected ESR1 mutation(s) become Not detected at C3D1” value is given as 67% and the “patients with at least one ESR1 mutation become Not detected at C3D1” value was determined as 77%. Also, the “maximum tolerated dose (MTD)” value in data set [4] is recorded as “not reached; also recorded: no MTD was identified”. Also, the “ERα Allred score on treatment” value in data set [5] was found to be 5.17.
